From patent US8999957B2, “Heterocyclic compounds as ERK inhibitors” (Merck Sharp & Dohme Corp., priority 2010, dated 2015)
Where two headings read alike, the source gives them in different places.

Tests used:
ERK protein = ERK protein (Mus musculus, UniProt P63085); test: TdF (Temperature Dependence Fluorescence, thermal shift) assay for ERK; assay type: binding
Excerpt: Assays: TdF Assay for ERK […] The TdF assay was mainly conducted in the 96-well based CHROMO-4 real time fluorescence plate reader (BioRad). The Sypro Orange (Sigma-Aldrich), environmentally sensitive fluorescence dye, was used to monitor the protein folding-unfolding transition. Protein-ligand binding was gauged by the change (or shift) in the unfolding transition temperature (ΔTm) acquired at protein alone with respect to protein in the presence of ligand of interest. Compound of interest was first prepared in DMSO stock (typical concentration: 10 mM). […] Final percentage of DMSO resided in the sample was 2%. The sample plate was heated from 30° C. to 90° C. with thermal ramping rate of 1° C./min. […] The instrument thermal stability was ±0.2° C. The melting temperatures (Tm) for ERK protein under aforementioned conditions occurred at 61.0±0.2° C. and 64.8±02° C. respectively. Theoretical Basis for TdF-Based Ligand Binding Affinity Constant […] In brief, the binding constant of the ligand at the Tm is expressed as below: [formula] where T0 is the midpoint of unfolding for unliganded protein and Tm is the midpoint of unfolding in presence of ligand. [LTm] is free ligand at Tm. The ΔHu and ΔCpu are the enthalpy of unfolding and heat capacity change of unfolding for the protein respectively. Following algorithm derived by Winsor and coworker, the T0, ΔHu and ΔCpu can be determined separately from nonlinear regression fitting the protein alone melting curve: Where F(T) is the observed fluorescence intensity at any temperature T, Yn and Yu are the predicted fluorescence intensities for fully folded and unfolded protein, respectively; mn and mu are slope correction for changes in Yn and Yu with respect to changes in temperature (analogously replace T0 with Tm in the above equation for liganded protein to yield Tm). […] [formula] where ΔHL (T) is the van't Hoff enthalpy of ligand binding at temperature T and ΔCpL is the heat capacity upon ligand binding. For simplicity, the ΔCpL and ΔHL (T) were set to zero and −7 kcal/mol respectively.

[1] = target: inactive ERK2 (unphosphorylated Mouse ERK2 protein) (Mus musculus (Mouse), UniProt P63085); test: Coupled ERK2 (cERK) assay, coupled MEK1/ERK2 IMAP assay; assay type: biochemical; conditions: 30 μM ATP
Chain of inactive ERK2 (unphosphorylated Mouse ERK2 protein) (P63085 whole entry): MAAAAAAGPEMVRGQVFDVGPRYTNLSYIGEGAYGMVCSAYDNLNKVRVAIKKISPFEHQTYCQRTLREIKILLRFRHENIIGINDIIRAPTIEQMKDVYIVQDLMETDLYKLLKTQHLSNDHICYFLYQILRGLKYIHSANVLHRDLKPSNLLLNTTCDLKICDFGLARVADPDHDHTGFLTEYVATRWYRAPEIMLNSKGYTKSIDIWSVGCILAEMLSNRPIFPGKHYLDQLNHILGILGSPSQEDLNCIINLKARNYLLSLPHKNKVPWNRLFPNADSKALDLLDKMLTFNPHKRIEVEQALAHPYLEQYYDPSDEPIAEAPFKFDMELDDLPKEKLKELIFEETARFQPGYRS
Description: 14 μl of kinase buffer (10 mM Tris.HCl pH 7.2, 10 mM MgCl2, 0.01% Tween-20, 1 mM DTT) containing 0.4 ng unphosphorylated Mouse ERK2 protein was added to each well of a black 384-well assay plate. […] DMSO concentration during initial incubation is 6.7%. ERK2 activity was determined to be insensitive to DMSO concentrations up to 20%. ERK2 was then activated and it's kinase activity measured by the addition of 10 μl kinase buffer with the following components (final concentration per reaction): 2 ng active (phosphorylated) human MEK1 protein and 4 μM (total) ERK2 IMAP substrate peptides (3.9 μM unlabeled […]-CONH2 and 100 nM […](5-carboxyfluorescein)-CONH2) and 30 μM ATP. DMSO concentration during ERK activation was 4%. After one hour, reactions were terminated by addition of 60 μl IMAP detections beads in binding buffer (Molecular Devices). Binding was allowed to equilibrate for 30 minutes before reading the plate on an LJL Analyst Fluorescence Polarization plate reader. […] Active compounds were reconfirmed in an independent assay.

[2] = target: fully phosphorylated, active Mouse ERK2 protein (Mus musculus (Mouse), UniProt P63085); test: Active ERK2 (aERK) IMAP assay, condition 1; assay type: biochemical; conditions: aERK assay condition 1, 30 μM ATP
Chain of fully phosphorylated, active Mouse ERK2 protein (P63085 whole entry): as above
Description: Active ERK2 (aERK) Assay: (Unless Indicated Otherwise, the Data Provided for aERK was obtained using Condition 1)
Activated ERK2 activity was also determined in the IMAP assay format using the procedure outlined above. […] Reactions proceeded for 30 minutes before termination by addition of 60 μl IMAP detection beads in binding buffer. Plates were read as above after 30 minute binding equilibration.

[3] = 3 μM ERK protein, uncertainty estimated ±50%, read-out: Kd TdF

Chain of ERK protein (P63085 2-358 limits assumed): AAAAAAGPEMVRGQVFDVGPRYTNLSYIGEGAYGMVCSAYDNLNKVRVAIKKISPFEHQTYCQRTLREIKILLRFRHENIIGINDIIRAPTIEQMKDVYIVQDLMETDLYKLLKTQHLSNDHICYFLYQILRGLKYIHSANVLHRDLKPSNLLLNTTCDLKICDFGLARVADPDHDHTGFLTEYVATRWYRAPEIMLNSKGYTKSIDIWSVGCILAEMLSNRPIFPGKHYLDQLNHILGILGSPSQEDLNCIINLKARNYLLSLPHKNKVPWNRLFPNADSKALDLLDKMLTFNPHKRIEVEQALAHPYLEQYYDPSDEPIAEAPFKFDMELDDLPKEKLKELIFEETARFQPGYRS

Row | Kd (ERK protein; [3]) [nM] | IC50 [2] [nM] | Structure (SMILES) | IC50 [1] [nM] | Kd (ERK protein; read-out: Kd TdF, 3 μM ERK protein, uncertainty estimated ±50%) [nM]
1 | 0.81 | 112 | COc1cc(-c2n[nH]c3ccc(C(=O)N[C@@H]4CCCN(Cc5ccccc5F)C4)cc23)ccn1 |  | 
2 | 0.4 | 33.2 | O=C(N[C@@H]1CCCN(Cc2ccccc2F)C1)c1ccc2[nH]nc(-c3ccnc(C4CC4)c3)c2c1 |  | 
3 | 0.24 | 155 | COc1cccc(F)c1CN1CCC[C@@H](NC(=O)c2ccc3[nH]nc(-c4ccc(C#N)cc4)c3c2)C1 |  | 
4 | 0.83 | 264 | COc1cccc(F)c1CN1CCC[C@@H](NC(=O)c2ccc3[nH]nc(-c4cccc(C#N)c4)c3c2)C1 |  | 
5 | 0.53 | 18.7 | Cc1cc(-c2n[nH]c3ccc(C(=O)N[C@@H]4CCCN(Cc5csc6ccccc56)C4)cc23)ccn1 |  | 
6 | 0.2 | 28.1 | Cc1cc(-c2n[nH]c3ccc(C(=O)N[C@@H]4CCCN(Cc5ccccc5Cl)C4)cc23)ccn1 |  | 
7 | 1.95 | 154 | CC(=O)n1cc(CN2CCC[C@@H](NC(=O)c3ccc4[nH]nc(-c5ccnc(C)c5)c4c3)C2)c2ccccc21 |  | 
8 | 0.13 | 89 | Cc1cc(-c2n[nH]c3ccc(C(=O)N[C@@H]4CCCN(Cc5c(C)cccc5C)C4)cc23)ccn1 |  | 
9 | 1.38 | 21.5 | Cc1cc(-c2n[nH]c3ccc(C(=O)N[C@@H]4CCCN(Cc5cn(C)c6ccccc56)C4)cc23)ccn1 |  | 
10 | 0.21 | 41.7 | Cc1cc(-c2n[nH]c3ccc(C(=O)N[C@@H]4CCCN(Cc5cc6ccccc6n5C)C4)cc23)ccn1 |  | 
11 | 0.1 | 4.02 | COc1cccc(F)c1CN1CCC[C@@H](NC(=O)c2ccc3[nH]nc(-c4ccc5cncn5c4)c3c2)C1 |  | 
12 | 0.1 | 16.4 | COc1cccc(F)c1CN1CCC[C@@H](NC(=O)c2ccc3[nH]nc(-c4ccc5nc(C)oc5c4)c3c2)C1 |  | 
13 | 0.6 | 45.6 | COc1cccc(F)c1CN1CCC[C@@H](NC(=O)c2ccc3[nH]nc(-c4ccc5oc(C)nc5c4)c3c2)C1 |  | 
14 | 1.43 | 15.1 | Cc1cc(-c2n[nH]c3ccc(C(=O)N[C@@H]4CCCN(Cc5cc6ccccc6o5)C4)cc23)ccn1 |  | 
15 | 9.76 | 660 | Cc1cc(-c2n[nH]c3ccc(C(=O)N[C@@H]4CCCN(Cc5cc(F)c(Cl)cc5Cl)C4)cc23)ccn1 |  | 
16 | 3.97 | 90.1 | Cc1cc(-c2n[nH]c3ccc(C(=O)N[C@@H]4CCCN(Cc5cc6ccccc6s5)C4)cc23)ccn1 |  | 
17 | 20.5 | 507 | Cc1cc(-c2n[nH]c3ccc(C(=O)N[C@@H]4CCCN(Cc5ccncn5)C4)cc23)ccn1 |  | 
18 | 2.33 | 220 | COc1cccc(CN2CCC[C@@H](NC(=O)c3ccc4[nH]nc(-c5ccnc(C)c5)c4c3)C2)n1 |  | 

Second part, the compound before the results:

Row | Structure (SMILES) | Kd (ERK protein; [3]) [nM] | IC50 [2] [nM] | IC50 [1] [nM] | Kd (ERK protein; read-out: Kd TdF, 3 μM ERK protein, uncertainty estimated ±50%) [nM]
19 | O=C(N[C@@H]1CCCN(Cc2ccccc2F)C1)c1ccc2[nH]nc(-c3ccnc(Cl)c3)c2c1 | 0.58 | 26.1 | 25 | 
20 | CC(C)Oc1ccc(-c2n[nH]c3ccc(C(=O)N[C@@H]4CCCN(Cc5ccccc5F)C4)cc23)cc1 | 1.2 | 275 | 443 | 
21 | CC(C)Oc1ccc(-c2n[nH]c3ccc(C(=O)N[C@@H]4CCCN(Cc5ccccc5F)C4)cc23)cn1 | 2 | 77.9 | 124 | 
22 | O=C(N[C@@H]1CCCN(Cc2ccccc2F)C1)c1ccc2[nH]nc(-c3ccc4c(c3)CCO4)c2c1 | 0.61 | 52.1 | 48.6 | 
23 | O=C(N[C@H]1CCCN(Cc2ccccc2)C1)c1ccc2[nH]nc(-c3ccncc3)c2c1 | 118 | 485 | 304 | 
24 | O=C(N[C@H]1CCCN(Cc2ccccc2F)C1)c1ccc2[nH]nc(-c3ccncc3)c2c1 | 38 | 224 | 166 | 
25 | O=C(N[C@@H]1CCCN(Cc2ccccc2)C1)c1ccc2[nH]nc(-c3ccncc3)c2c1 | 0.3 | 5.8 | 2.9 | 
26 | O=C(N[C@@H]1CCCN(Cc2ccccc2F)C1)c1ccc2[nH]nc(-c3ccncc3)c2c1 | 0.6 | 5.5 | 1.1 | 
27 | O=C(NC1CCCN(Cc2ccccc2F)C1)c1ccc2[nH]nc(-c3ccncc3)c2c1 (stereo not drawn) | 0.3 | 28.1 | 14.4 | 
28 | O=C(NC1CCCN(Cc2ccccc2)C1)c1ccc2[nH]nc(-c3ccncc3)c2c1 (stereo not drawn) | 0.6 | 32.5 | 16.6 | 
29 | CC(C)Oc1ccc(-c2n[nH]c3ccc(C(=O)NC4CCCN(Cc5ccccc5F)C4)cc23)cn1 (stereo not drawn) | 2.9 | 769 | 307 | 
30 | O=C(NC1CCCN(Cc2ccccc2)C1)c1ccc2[nH]nc(-c3ccc4c(c3)CCO4)c2c1 (stereo not drawn) | 1.4 | 134 | 172 | 
31 | O=C(NC1CCCN(Cc2ccccc2F)C1)c1ccc2[nH]nc(-c3ccc4c(c3)CCO4)c2c1 (stereo not drawn) | 2.6 | 284 | 231 | 
32 | CC(c1ccccc1)N1CCC[C@@H](NC(=O)c2ccc3[nH]nc(-c4ccncc4)c3c2)C1 (stereo partly drawn) | 804 | 475 | 763 | 
33 | COc1cccc(F)c1CN1CCC[C@@H](NC(=O)c2ccc3[nH]nc(-c4ccc(S(C)(=O)=O)cc4)c3c2)C1 | 1.37 | 195 |  | 
34 | COc1cccc(F)c1CN1CCC[C@@H](NC(=O)c2ccc3[nH]nc(-c4ccc(N)c(OC(C)=O)c4)c3c2)C1 | 6.5 | 483 |  | 
35 | CCn1cc(-c2n[nH]c3ccc(C(=O)N[C@@H]4CCCN(Cc5c(F)cccc5OC)C4)cc23)cn1 | 1.59 | 114 |  | 
36 | Cc1cc(-c2n[nH]c3ccc(C(=O)N[C@@H]4CCCN(C5CCc6ccccc65)C4)cc23)ccn1 (stereo partly drawn) | 0.28 | 65.4 |  | 
37 | COc1cccc(F)c1CN1C[C@H](C)C[C@@H](NC(=O)c2ccc3[nH]nc(-c4ccnc(C)c4)c3c2)C1 | 3.33 | 204 |  | 
38 | COc1cccc(F)c1CN1C[C@@H](C)C[C@@H](NC(=O)c2ccc3[nH]nc(-c4ccc5nccn5c4)c3c2)C1 | 0.01 | 5.84 |  | 
39 | COc1cccc(F)c1CN1C[C@H](C)C[C@@H](NC(=O)c2ccc3[nH]nc(-c4ccc5nccn5c4)c3c2)C1 | 0.03 | 10.6 |  | 
40 | COc1cccc(F)c1CN1C[C@@H](C)C[C@@H](NC(=O)c2ccc3[nH]nc(-c4ccc5nn(C)cc5c4)c3c2)C1 | 0.02 | 6.1 |  | 
41 | Cc1cc(-c2n[nH]c3ccc(C(=O)N[C@@H]4CCCN(CCc5ccccc5C(F)(F)F)C4)cc23)ccn1 |  | 86.9 |  | 2.2
42 | CN1CC(NC(=O)c2ccc3[nH]nc(-c4ccncc4)c3c2)CC(c2ccccc2)C1 (stereo not drawn) [drawing 158, N-(1-methyl-5-phenylpiperidin-3-yl)-3-(pyridin-4-yl)-1H-indazole-5-carboxamide] | 1.4 | 2.6 | 7.4 | 
